We go through five molecules from ChEMBL document CHEMBL5724914, “Linking interpersonal differences in gut microbiota composition and drug biotransformation activity” (2024).

The conditions of data set [1]: human gut metagenome, 24 h, 2 µM.
The nature of data set [2]: The drug is tested on WLS-007 corresponding to human gut metagenome with ENA study accession number: PRJEB37062 and ENA sample accession number: ERS12561742 for biotransformation under anaerobic condition. The drug concentrations were measured over 9 timepoints collected between 0 and 24 hours of incubation by liquid-chromatography-coupled mass spectrometry (LC–MS). The note with it: 2 µM.

Data set [3] can be described thus: The drug is tested on WLS-090 corresponding to human gut metagenome with ENA study accession number: PRJEB37062 and ENA sample accession number: ERS12561753 for biotransformation under anaerobic condition. The drug concentrations were measured over 9 timepoints collected between 0 and 24 hours of incubation by liquid-chromatography-coupled mass spectrometry (LC–MS). The note with it: 2 µM.

The nature of data set [4]: The drug is tested on Z-020 corresponding to rabbit gut metagenome with ENA study accession number: PRJEB37062 and ENA sample accession number: ERS12561819 for biotransformation under anaerobic condition. The drug concentrations were measured over 9 timepoints collected between 0 and 24 hours of incubation by liquid-chromatography-coupled mass spectrometry (LC–MS). The note with it: 2 µM.

For data set [5] the following is noted: human gut metagenome, 24 h, 2 µM. The source holds these as a separate data set.
For data set [6] the following is noted: human gut metagenome, 24 h, 2 µM. This is another data set of the same source.
The conditions of data set [7]: human gut metagenome, 24 h, 2 µM. This is another data set of the same source.
The nature of data set [8]: The drug is tested on Z-023 corresponding to metagenome with ENA study accession number: PRJEB37062 and ENA sample accession number: ERS12561822 for biotransformation under anaerobic condition. The drug concentrations were measured over 9 timepoints collected between 0 and 24 hours of incubation by liquid-chromatography-coupled mass spectrometry (LC–MS). The note with it: 2 µM.

The conditions of data set [9]: human gut metagenome, 24 h, 2 µM. The source holds these as a separate data set.
The conditions of data set [10]: human gut metagenome, 24 h, 2 µM. The source holds these as a separate data set.
Data set [11] in a line: The drug is tested on Z-001 corresponding to mouse gut metagenome with ENA study accession number: PRJEB37062 and ENA sample accession number: ERS12561801 for biotransformation under anaerobic condition. The drug concentrations were measured over 9 timepoints collected between 0 and 24 hours of incubation by liquid-chromatography-coupled mass spectrometry (LC–MS). The note with it: 2 µM.

The nature of data set [12]: The drug is tested on Z-012 corresponding to metagenome with ENA study accession number: PRJEB37062 and ENA sample accession number: ERS12561812 for biotransformation under anaerobic condition. The drug concentrations were measured over 9 timepoints collected between 0 and 24 hours of incubation by liquid-chromatography-coupled mass spectrometry (LC–MS). The note with it: 2 µM.

The conditions of data set [13]: human gut metagenome, 24 h, 2 µM. This is another data set of the same source.
Data set [14] is described as follows: The drug is tested on WLS-098 corresponding to human gut metagenome with ENA study accession number: PRJEB37062 and ENA sample accession number: ERS12561754 for biotransformation under anaerobic condition. The drug concentrations were measured over 9 timepoints collected between 0 and 24 hours of incubation by liquid-chromatography-coupled mass spectrometry (LC–MS). The note with it: 2 µM.

For data set [15] the following is noted: human gut metagenome, 24 h, 2 µM. This is another data set of the same source.
A short description of data set [16]: The drug is tested on WLS-052 corresponding to human gut metagenome with ENA study accession number: PRJEB37062 and ENA sample accession number: ERS12561747 for biotransformation under anaerobic condition. The drug concentrations were measured over 9 timepoints collected between 0 and 24 hours of incubation by liquid-chromatography-coupled mass spectrometry (LC–MS). The note with it: 2 µM.

A short description of data set [17]: The drug is tested on Z-027 corresponding to metagenome with ENA study accession number: PRJEB37062 and ENA sample accession number: ERS12561826 for biotransformation under anaerobic condition. The drug concentrations were measured over 9 timepoints collected between 0 and 24 hours of incubation by liquid-chromatography-coupled mass spectrometry (LC–MS). The note with it: 2 µM.

The nature of data set [18]: The drug is tested on WLS-073 corresponding to human gut metagenome with ENA study accession number: PRJEB37062 and ENA sample accession number: ERS12561749 for biotransformation under anaerobic condition. The drug concentrations were measured over 9 timepoints collected between 0 and 24 hours of incubation by liquid-chromatography-coupled mass spectrometry (LC–MS). The note with it: 2 µM.

Data set [19] can be described thus: The drug is tested on WLS-027 corresponding to human gut metagenome with ENA study accession number: PRJEB37062 and ENA sample accession number: ERS12561744 for biotransformation under anaerobic condition. The drug concentrations were measured over 9 timepoints collected between 0 and 24 hours of incubation by liquid-chromatography-coupled mass spectrometry (LC–MS). The note with it: 2 µM.

Data set [20] can be described thus: The drug is tested on Z-011 corresponding to mouse gut metagenome with ENA study accession number: PRJEB37062 and ENA sample accession number: ERS12561811 for biotransformation under anaerobic condition. The drug concentrations were measured over 9 timepoints collected between 0 and 24 hours of incubation by liquid-chromatography-coupled mass spectrometry (LC–MS). The note with it: 2 µM.
Also: call rule not given here.

In the case of `OC(Cn1cncn1)(Cn1cncn1)c1ccc(F)cc1F` [FLUCONAZOLE], the “Bacterial Biotransformation” value in data set [1] is on record as “Compound metabolized”; in data set [2], “Compound metabolized”; in data set [3] it was “Compound metabolized”; in data set [4], “Compound NOT metabolized”; in data set [5], “Compound NOT metabolized”; in data set [6] it was “Compound metabolized”. For the same molecule, the “Bacterial Biotransformation” value in data set [7] is recorded as “Compound metabolized”; in data set [8] it was “Compound metabolized”; in data set [9] it was “Compound metabolized”; in data set [10] it was “Compound metabolized”; in data set [11] it was “Compound NOT metabolized”; in data set [12] it was “Compound NOT metabolized”. Also, the “Bacterial Biotransformation” value in data set [13] is “Compound NOT metabolized”; in data set [14], “Compound metabolized”; in [15], “Compound metabolized”; in data set [16], “Compound NOT metabolized”; in data set [17], “Compound NOT metabolized”; in [18], “Compound NOT metabolized”. The “Bacterial Biotransformation” value was “Compound metabolized” in [19] and “Compound NOT metabolized” in data set [20].

Turning to `CNCCC(Oc1ccc(C(F)(F)F)cc1)c1ccccc1` (stereo not given) [FLUOXETINE], the “Bacterial Biotransformation” value in data set [1], in data set [2], in [3], in data set [4], in [5] and in data set [6] was “Compound NOT metabolized” each time. Moreover, the “Bacterial Biotransformation” value in [7], in data set [8], in data set [9], in [10], in data set [11] and in data set [12] was “Compound NOT metabolized” each time. Also, the “Bacterial Biotransformation” value in data set [13] is on record as “Compound metabolized”; in [14] it was “Compound NOT metabolized”; in [15] it was “Compound NOT metabolized”; in data set [16], “Compound NOT metabolized”; in data set [17], “Compound NOT metabolized”; in data set [18], “Compound NOT metabolized”. Moreover, the “Bacterial Biotransformation” value in [19] and in data set [20] was “Compound NOT metabolized” in each case.

Take `O=C(CCCN1CCC(O)(c2ccc(Cl)cc2)CC1)c1ccc(F)cc1` [HALOPERIDOL]: the “Bacterial Biotransformation” value was “Compound NOT metabolized” in data set [1]; “Compound NOT metabolized” in data set [2]; “Compound metabolized” in [3]; “Compound NOT metabolized” in data set [4]; “Compound NOT metabolized” in [5]; “Compound metabolized” in data set [6]. For the same molecule, the “Bacterial Biotransformation” value was “Compound metabolized” in data set [7]; “Compound metabolized” in data set [8]; “Compound metabolized” in data set [9]; “Compound NOT metabolized” in data set [10]; “Compound NOT metabolized” in [11]; “Compound NOT metabolized” in data set [12]. The “Bacterial Biotransformation” value in data set [13] is on record as “Compound NOT metabolized”; in [14], “Compound metabolized”; in data set [15], “Compound NOT metabolized”; in data set [16] it was “Compound NOT metabolized”; in data set [17] it was “Compound NOT metabolized”; in data set [18], “Compound NOT metabolized”. The results for the “Bacterial Biotransformation” value in [19] and in [20] were “Compound metabolized” and “Compound NOT metabolized”, respectively.

Take `CCCCC1=NC2(CCCC2)C(=O)N1Cc1ccc(-c2ccccc2-c2nnn[nH]2)cc1` [IRBESARTAN]: the “Bacterial Biotransformation” value in data set [1], in [2], in [3], in data set [4], in [5] and in data set [6] was “Compound metabolized” throughout. The “Bacterial Biotransformation” value is “Compound metabolized” in data set [7]; “Compound metabolized” in data set [8]; “Compound metabolized” in [9]; “Compound metabolized” in [10]; “Compound metabolized” in data set [11]; “Compound NOT metabolized” in data set [12]. Also, the “Bacterial Biotransformation” value is reported as “Compound metabolized” in data set [13]; “Compound metabolized” in data set [14]; “Compound metabolized” in [15]; “Compound metabolized” in data set [16]; “Compound NOT metabolized” in data set [17]; “Compound metabolized” in data set [18]. Moreover, the “Bacterial Biotransformation” value in [19] is “Compound metabolized”; in data set [20], “Compound NOT metabolized”.

On to `NC(CO)(CO)CO.O=C(c1ccccc1)c1ccc2n1CCC2C(=O)O` (stereo not given) [KETOROLAC TROMETHAMINE], for which the “Bacterial Biotransformation” value in data set [1], in data set [2], in data set [3], in data set [4], in data set [5] and in data set [6] was “Compound metabolized” in each case. Besides, the “Bacterial Biotransformation” value was “Compound metabolized” in [7]; “Compound metabolized” in data set [8]; “Compound metabolized” in data set [9]; “Compound metabolized” in data set [10]; “Compound NOT metabolized” in data set [11]; “Compound NOT metabolized” in [12]. The “Bacterial Biotransformation” value in data set [13], in data set [14], in data set [15], in data set [16], in [17] and in [18] was “Compound metabolized” throughout. Moreover, the “Bacterial Biotransformation” value is listed as “Compound metabolized” in data set [19] and “Compound NOT metabolized” in data set [20].
